According to DBAASP:
Values after ≈ are worked out from the molar mass of the structure shown. Values joined by “and” are separate entries in the source; they are usually repeats but may differ in a detail not shown here. Equal values may be shown once.

Tests used:
Experiment in all cases: ≥ marks a high value that may be exact or a test limit, other limits are often not marked, values filed in µg/mL are converted to µM
[1] = tested on: Bacteroides fragilis
[2] = tested on: Candida albicans ATCC 90028
[3] = tested on: Bacteroides fragilis ATCC 25285
[4] = tested on: Salmonella enterica subsp. enterica serovar Typhimurium LT2
[5] = tested on: Staphylococcus aureus NCTC 8325
[6] = tested on: Pseudomonas aeruginosa ATCC 27853
[7] = tested on: Escherichia coli ATCC 25726
[8] = tested on: Enterobacter cloacae HNTCC 53001
[9] = tested on: Enterococcus faecalis ATCC 29212
[10] = tested on: Clostridium perfringens ATCC 10543
[11] = tested on: Fusobacterium nucleatum
[12] = tested on: Staphylococcus aureus T7/5
[13] = tested on: Staphylococcus epidermidis RP62A
[14] = tested on: Clostridium septicum
[15] = tested on: Cutibacterium acnes
[16] = tested on: Proteus mirabilis ATCC 25933
[17] = tested on: Peptoniphilus asaccharolyticus ATCC 29743
[18] = tested on: Clostridium tertium ATCC 19465
[19] = tested on: Cutibacterium acnes ATCC 11828
[20] = tested on: Escherichia coli ATCC 25922
[21] = tested on: Candida albicans ATCC 900280
[22] = tested on: Prevotella melaninogenica
[23] = tested on: Klebsiella pneumoniae KK3 9904
[24] = tested on: Peptostreptococcus anaerobius
[25] = tested on: Fusobacterium varium ATCC 27725
[26] = tested on: Staphylococcus aureus ATCC 25923
[27] = tested on: Batrachochytrium dendrobatidis
[28] = tested on: Klebsiella oxytoca BCRC 13985
[29] = tested on: Staphylococcus aureus BCRC 10781
[30] = tested on: Yersinia enterocolitica BCRC 13999
[31] = tested on: Vibrio parahaemolyticus
[32] = tested on: Listeria monocytogenes BCRC 14845
[33] = tested on: Klebsiella aerogenes BCRC 10370
[34] = tested on: Vibrio anguillarum serotype O1
[35] = tested on: Vibrio alginolyticus BCRC 12829
[36] = tested on: Escherichia coli BCRC 10675
[37] = tested on: Pseudomonas aeruginosa BCRC 10944
[38] = tested on: Enterobacter cloacae BCRC 10401
[39] = tested on: Vibrio harveyi
[40] = tested on: Lactococcus garvieae
[41] = tested on: Streptococcus iniae
[42] = tested on: Staphylococcus xylosus BCRC 12930
[43] = tested on: Staphylococcus aureus BCRC 10780
[44] = tested on: Vibrio alginolyticus
[45] = tested on: Vibrio parahaemolyticus BCRC 10806
[46] = tested on: Streptococcus equinus BCRC 14729

SMILES: CC[C@H](C)[C@H](NC(=O)[C@H](CCCCN)NC(=O)[C@H](CCCCN)NC(=O)[C@H](C)NC(=O)[C@H](CC(C)C)NC(=O)[C@H](CC(N)=O)NC(=O)[C@@H](NC(=O)[C@H](CC(C)C)NC(=O)[C@@H](NC(=O)CNC(=O)[C@H](CC(C)C)NC(=O)[C@H](Cc1ccccc1)NC(=O)[C@@H](N)Cc1cnc[nH]1)[C@@H](C)O)C(C)C)C(=O)N[C@@H](CC(C)C)C(N)=O [HFLGTLVNLAKKIL]
- MIC [1]: ≥ 50 µM
- MIC [2]: ≥ 40 µM and 25 µM
- MIC [3]: ≥ 50 µM
- MIC [4]: ≥ 32 µM
- MIC [5]: 6.32 µM (≈ 9.9 µg/mL)
- MIC [6]: 32 µM (≈ 50.1 µg/mL)
- MIC [7]: ≥ 32 µM
- MIC [8]: ≥ 32 µM
- MIC [9]: 16 µM (≈ 25.1 µg/mL)
- MIC [10]: 6 µM (≈ 9.4 µg/mL)
- MIC [11]: 25 µM (≈ 39.1 µg/mL)
- MIC [12]: 10 µM (≈ 15.7 µg/mL)
- MIC [13]: 4 µM (≈ 6.26 µg/mL)
- MIC [14]: 12.5 µM (≈ 19.6 µg/mL)
- MIC [15]: 6 µM (≈ 9.4 µg/mL)
- MIC [16]: ≥ 128 µM
- MIC [17]: 25 µM (≈ 39.1 µg/mL)
- MIC [18]: 3 µM (≈ 4.7 µg/mL)
- MIC [19]: 6 µM (≈ 9.4 µg/mL)
- MIC [20]: 20 µM (≈ 31.3 µg/mL)
- MIC [21]: 16 µM (≈ 25.1 µg/mL)
- MIC [22]: 12.5 µM (≈ 19.6 µg/mL)
- MIC [23]: ≥ 32 µM
- MIC [24]: 12.5 µM (≈ 19.6 µg/mL)
- MIC [25]: ≥ 50 µM
- MIC [26]: 8 µM (≈ 12.5 µg/mL)

SMILES: CC[C@H](C)[C@H](NC(=O)CN)C(=O)N[C@@H](CCSC)C(=O)N[C@@H](CC(=O)O)C(=O)N[C@@H](CO)C(=O)N[C@H](C(=O)N[C@@H](CCCCN)C(=O)NCC(=O)N[C@@H](C)C(=O)N[C@@H](C)C(=O)N[C@@H](CCCCN)C(=O)N[C@@H](CCC(=O)O)C(=O)N[C@H](C(=O)N[C@@H](C)C(=O)NCC(=O)N[C@@H](Cc1cnc[nH]1)C(=O)N[C@@H](CC(C)C)C(=O)N[C@@H](CC(C)C)C(=O)N[C@@H](CC(=O)O)C(=O)N[C@@H](CC(N)=O)C(=O)N[C@@H](CC(C)C)C(=O)N[C@@H](CCCCN)C(=O)N[C@H]1CSSC[C@@H](C(=O)O)NC(=O)CNC(=O)[C@H]([C@@H](C)O)NC(=O)[C@H]([C@@H](C)CC)NC(=O)[C@H](CCCCN)NC1=O)[C@@H](C)CC)[C@@H](C)CC [GIMDSIKGAAKEIAGHLLDNLKCKITGC]
- MIC [27]: ≥ 50 µM

SMILES: CC[C@H](C)[C@H](NC(=O)[C@H](CCCCN)NC(=O)[C@H](CCCCN)NC(=O)[C@H](C)NC(=O)[C@H](Cc1ccccc1)NC(=O)[C@@H](NC(=O)[C@H](C)NC(=O)[C@H](CC(C)C)NC(=O)[C@H](CCCCN)NC(=O)[C@H](CCCCN)NC(=O)[C@H](C)NC(=O)[C@H](C)NC(=O)[C@H](CC(N)=O)NC(=O)[C@H](C)NC(=O)CN)[C@@H](C)O)C(=O)N[C@@H](Cc1ccccc1)C(=O)N[C@H](C(=O)N[C@@H](C)C(=O)N[C@@H](Cc1ccc(O)cc1)C(=O)N[C@@H](Cc1c[nH]c2ccccc12)C(=O)O)[C@@H](C)O [GANAAKKLATFAKKIFTAYW]
- MIC [28]: ≥ 58.2 µM
- MIC [29]: 29.1 µM
- MIC [30]: ≥ 116 µM
- MIC [31]: 7.27 µM
- MIC [32]: ≥ 58.2 µM
- MIC [33]: 14.5 µM
- MIC [34]: 7.27 µM
- MIC [35]: ≥ 58.2 µM
- MIC [36]: 14.5 µM
- MIC [37]: 29.1 µM
- MIC [38]: 7.27 µM
- MIC [39]: 7.27 µM
- MIC [40]: ≥ 116 µM
- MIC [41]: ≥ 58.2 µM
- MIC [42]: 29.1 µM
- MIC [43]: 29.1 µM
- MIC [44]: 7.27 µM
- MIC [45]: ≥ 58.2 µM
- MIC [46]: ≥ 58.2 µM
